Data reported in the supplement of paper PMC10307832.

What was measured:
Test in all cases: relative viability (nuclei count vs DMSO), 5 days (fraction); higher = more cells survive
[1] = compound: COC1=CC=C(C=C1)CN2C=CC3=C2C=C(C=C3)C(=O)NO + Cc1nc(Nc2ncc(C(=O)Nc3c(C)cccc3Cl)s2)cc(N2CCN(CCO)CC2)n1 [Dasatinib] (partner 0.075 µM)
Procedure, shortened: (§1)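 Relative viability was taken as the ratio of nuclei in treated wells to nuclei in vehicle wells. Lung cancer cell lines in 1536-well plates received compounds by pin tool one day after seeding, either one drug alone or a fixed anchor-drug dose plus five library-drug doses (not always all listed) in √10 steps. Nuclei were counted on 4× images after 5 days of treatment, and values are medians of duplicate plates.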

Veliparib + Crizotinib = compound: C[C@]1(c2nc3c(C(N)=O)cccc3[nH]2)CCCN1 [Veliparib] + C[C@@H](Oc1cc(-c2cnn(C3CCNCC3)c2)cnc1N)c1c(Cl)ccc(F)c1Cl [Crizotinib] (partner 1 µM)
Procedure, shortened: as §1

Veliparib + Olaparib = compound: C[C@]1(c2nc3c(C(N)=O)cccc3[nH]2)CCCN1 [Veliparib] + O=C(c1cc(Cc2n[nH]c(=O)c3ccccc23)ccc1F)N1CCN(C(=O)C2CC2)CC1 [Olaparib] (partner 8 µM)
Procedure, shortened: as §1

[2] = compound: COC1=CC=C(C=C1)CN2C=CC3=C2C=C(C=C3)C(=O)NO + CS(=O)(=O)CCNCc1ccc(-c2ccc3ncnc(Nc4ccc(OCc5cccc(F)c5)c(Cl)c4)c3c2)o1 [Lapatinib] (partner 2 µM)
Procedure, shortened: as §1

Cell Line	relative viability ([1]; first compound 0.253 µM)	relative viability ([1]; first compound 0.8 µM)	relative viability ([1]; first compound 2.53 µM)	relative viability ([1]; first compound 8 µM)	relative viability (Veliparib + Crizotinib; first compound 0.02 µM)	relative viability (Veliparib + Crizotinib; first compound 0.06325 µM)	relative viability (Veliparib + Crizotinib; first compound 0.2 µM)	relative viability (Veliparib + Crizotinib; first compound 0.6325 µM)	relative viability (Veliparib + Crizotinib; first compound 2 µM)	relative viability (Veliparib + Olaparib; first compound 0.02 µM)	relative viability (Veliparib + Olaparib; first compound 0.06325 µM)	relative viability (Veliparib + Olaparib; first compound 0.2 µM)	relative viability (Veliparib + Olaparib; first compound 0.6325 µM)	relative viability (Veliparib + Olaparib; first compound 2 µM)	relative viability ([2]; first compound 0.08 µM)	relative viability ([2]; first compound 0.253 µM)	relative viability ([2]; first compound 0.8 µM)	relative viability ([2]; first compound 2.53 µM)	relative viability ([2]; first compound 8 µM)	relative viability ([1]; first compound 0.08 µM)
LXF-289	0.202	0.237	0.246	0.181	0.784	0.777	0.818	0.727	0.83	1	1.04	1.01	0.986	1.16	0.301	0.921	0.878	0.926	0.883	–
NCI-H23	0.775	0.801	0.784	0.637	0.52	0.521	0.606	0.596	0.625	0.34	0.338	0.345	0.355	0.314	0.383	1.21	1.06	1.01	0.88	0.877
NCI-H322M	0.255	0.255	0.262	0.226	0.895	0.83	0.948	0.919	0.945	–	0.737	0.786	0.74	0.715	–	0.628	0.644	0.293	0.499	–
NCI-H358	0.152	0.192	0.157	0.126	–	0.533	0.564	0.523	0.618	0.673	0.739	0.662	0.564	0.597	–	0.472	0.437	0.394	0.397	–
NCI-H460	0.556	0.553	0.48	0.343	–	0.869	0.934	0.734	1.02	0.427	0.316	0.489	0.434	0.425	0.118	1.04	0.953	0.907	0.931	0.545
NCI-H520	0.228	0.213	0.232	0.281	0.808	0.698	0.697	0.713	0.836	0.352	0.329	0.332	0.366	0.358	0.425	0.891	0.943	0.886	0.803	0.16
NCI-H596	0.614	0.603	0.558	0.465	1.05	0.912	1.06	0.862	0.957	0.832	0.587	0.75	0.7	0.738	0.976	1.01	1.25	1.11	0.999	0.588
NCI-H647	0.198	0.179	0.186	0.186	1.07	1.01	1.23	1.03	0.907	0.657	0.465	0.659	0.505	0.572	0.626	1.07	1.04	1.1	0.97	0.126
NCI-H650	0.432	0.473	0.474	0.408	0.696	0.72	0.708	0.665	0.572	0.355	0.329	0.383	0.431	0.378	0.601	0.837	0.927	0.732	0.759	0.492
NCI-H661	0.985	0.957	0.802	0.579	0.91	0.884	0.909	0.885	0.963	0.749	0.824	0.712	0.692	0.741	–	0.471	0.471	0.443	0.402	–
NCI-H727	0.315	0.437	0.417	0.303	0.814	0.685	0.855	0.668	0.764	0.601	0.549	0.739	0.665	0.748	0.775	0.927	0.868	0.942	0.915	0.349
NCI-H838	0.265	0.31	0.297	0.258	0.859	0.9	0.851	0.83	0.895	0.852	0.729	0.802	0.702	0.764	–	1.01	0.98	1.03	0.873	–
NCI-H1355	0.764	0.717	0.698	0.679	–	1.03	0.996	0.986	0.955	0.656	0.69	0.764	0.678	0.78	0.247	1.1	0.959	0.978	0.934	–
NCI-H1437	0.339	0.469	0.466	0.395	0.902	0.929	0.9	0.81	0.834	0.688	0.624	0.616	0.653	0.661	0.23	0.84	0.877	0.886	0.8	0.332
NCI-H1650	0.292	0.317	0.351	0.254	–	0.899	1.11	0.81	0.919	0.918	0.679	0.729	0.707	0.757	0.254	0.76	0.847	0.86	0.451	0.342
NCI-H1651	0.452	0.43	0.358	0.331	0.926	0.853	0.805	0.799	0.83	0.172	0.197	0.183	0.173	0.183	0.425	0.886	0.857	0.767	0.746	0.311
NCI-H1666	0.783	0.887	0.873	0.822	0.94	0.826	1.03	0.995	1.07	0.777	0.711	0.82	0.771	0.778	0.428	0.778	0.821	0.649	0.716	0.831

Cell Line	relative viability ([1]; first compound 0.253 µM)	relative viability ([1]; first compound 0.8 µM)	relative viability ([1]; first compound 2.53 µM)	relative viability ([1]; first compound 8 µM)	relative viability (Veliparib + Crizotinib; first compound 0.02 µM)	relative viability (Veliparib + Crizotinib; first compound 0.06325 µM)	relative viability (Veliparib + Crizotinib; first compound 0.2 µM)	relative viability (Veliparib + Crizotinib; first compound 0.6325 µM)	relative viability (Veliparib + Crizotinib; first compound 2 µM)	relative viability (Veliparib + Olaparib; first compound 0.02 µM)	relative viability (Veliparib + Olaparib; first compound 0.06325 µM)	relative viability (Veliparib + Olaparib; first compound 0.2 µM)	relative viability (Veliparib + Olaparib; first compound 0.6325 µM)	relative viability (Veliparib + Olaparib; first compound 2 µM)	relative viability ([2]; first compound 0.08 µM)	relative viability ([2]; first compound 0.253 µM)	relative viability ([2]; first compound 0.8 µM)	relative viability ([2]; first compound 2.53 µM)	relative viability ([2]; first compound 8 µM)	relative viability ([1]; first compound 0.08 µM)
NCI-H1734	0.492	0.547	0.536	0.382	0.701	0.641	0.728	0.623	0.682	–	0.577	0.666	0.567	0.691	–	1.14	1.07	1.04	0.916	–
NCI-H1755	0.466	0.414	0.444	0.397	0.84	0.853	0.794	0.832	0.805	0.821	0.798	0.877	0.881	0.915	0.715	1.07	1	1.01	1.02	0.37
NCI-H1792	0.841	0.749	0.726	0.715	0.98	0.919	0.942	0.93	0.939	0.693	0.311	0.68	0.411	0.397	0.867	0.906	0.824	0.915	0.836	0.705
NCI-H1915	0.333	0.314	0.303	0.27	0.866	0.869	0.803	0.754	0.771	0.252	0.238	0.243	0.251	0.254	0.301	0.977	1.01	1	0.958	0.326
NCI-H1944	0.215	0.235	0.237	0.204	0.995	1.04	0.951	0.965	0.976	0.433	0.437	0.418	0.388	0.385	–	0.834	0.86	0.817	0.701	–
NCI-H1975	0.413	0.447	0.359	0.325	0.964	1.12	0.977	0.93	0.89	0.77	0.745	0.788	0.748	0.776	0.691	0.845	0.832	0.875	0.78	0.342
NCI-H1993	0.633	0.647	0.665	0.572	0.836	0.822	0.815	0.787	0.771	–	1.05	1.2	1.03	1.13	0.639	0.857	0.843	0.864	0.741	0.569
NCI-H2009	0.284	0.326	0.276	0.197	1.1	0.934	1.05	1.03	1.03	0.672	0.652	0.682	0.672	0.763	0.432	0.886	1.25	0.954	0.767	0.281
NCI-H2023	0.596	0.592	0.577	0.439	0.567	0.616	0.635	0.567	0.601	0.486	0.477	0.439	0.446	0.439	0.155	0.792	0.784	0.864	0.601	0.553
NCI-H2085	0.293	0.221	0.225	0.214	0.9	0.805	0.702	0.738	0.809	0.789	0.776	0.779	0.708	0.734	0.336	0.817	0.798	0.81	0.708	0.235
NCI-H2087	0.941	0.989	0.983	0.653	0.729	0.722	0.831	0.806	0.61	0.648	0.484	0.642	0.589	0.681	0.522	1	1.05	1.05	0.807	0.93
NCI-H2126	0.673	0.655	0.61	0.547	0.966	1.02	0.988	0.988	0.933	0.905	0.925	0.913	0.927	0.865	0.459	0.746	0.747	0.79	0.71	0.591
NCI-H2170	0.687	0.711	0.69	0.541	1.23	1.24	1.21	1.14	1.14	0.573	0.587	0.58	0.586	0.586	0.187	0.282	0.26	0.27	0.245	0.456
NCI-H2228	0.458	0.662	0.497	0.413	0.436	0.405	0.457	0.447	0.475	0.807	0.58	0.913	0.541	0.754	0.864	0.853	1.11	0.916	0.789	–
NCI-H2347	0.246	0.337	0.329	0.325	0.798	0.839	0.678	0.652	0.616	0.587	0.549	0.597	0.586	0.576	0.517	0.896	1.03	1.01	0.904	0.248
NCI-H2405	0.214	0.221	0.196	0.177	0.845	0.788	0.802	0.815	0.909	0.927	–	0.888	0.872	0.939	0.523	1.03	1.11	1.17	0.871	0.209
